# pKi: −log10 of the molar value.
# Target: human PDE10A2 (Homo sapiens (Human), UniProt Q9Y233)
# Assay: PDE10 fluorescence polarization (IMAP FP) inhibition assay
# Assay type: biochemical
# Conditions: FAM-labeled cAMP 50 nM, room temperature
# Protocol: The activity of the compounds in accordance with the present invention as PDE10 inhibitors may be readily determined without undue experimentation using a fluorescence polarization (FP) methodology that is well known in the art (Huang, W., et al., J. Biomol Screen, 2002, 7: 215).
# In a typical experiment the PDE10 inhibitory activity of the compounds of the present invention was determined in accordance with the following experimental method. PDE10A2 was amplified from human fetal brain cDNA (Clontech, Mountain View, Calif.) using a forward primer corresponding to nucleotides 56-77 of human PDE10A2 (Accession No. AF127480, Genbank Identifier 4894716), containing a Kozak consensus sequence, and a reverse primer corresponding to nucleotides 2406-2413 of human PDE10A2 (Accession No. AF127480, Genbank Identifier 4894716). Amplification with Easy-A polymerase (Stratagene, La Jolla, Calif.) was 95° C. for 2 minutes followed by thirty three cycles of 95° C. for 40 seconds, 55° C. for 30 seconds, and 72° C. for 2 minutes 48 seconds. Final extension was 72° C. for 7 minutes. The PCR product was TA cloned into pcDNA3.2-TOPO (Invitrogen, Carlsbad, Calif.) according to standard protocol. AD293 cells with 70-80% confluency were transiently transfected with human PDE10A2/pcDNA3.2-TOPO using Lipofectamine 2000 according to manufacturer specifications (Invitrogen, Carlsbad, Calif.). Cells were harvested 48 hours post-transfection and lysed by sonication (setting 3, 10×5 sec pulses) in a buffer containing 20 mM HEPES, 1 mM EDTA and protease inhibitor cocktail (Roche). Lysate was collected by centrifugation at 75,000 xg for 20 minutes. Supernatant containing the cytoplasmic fraction was used for evaluation of PDE10A2 activity. The fluorescence polarization assay for cyclic nucleotide phosphodiesterases was performed using an IMAP® FP kit supplied by Molecular Devices, Sunnyvale, Calif. (product # R8139). IMAP® technology has been applied previously to phosphodiesterase assays (Huang, W., et al., J. Biomol Screen, 2002, 7: 215). Assays were performed at room temperature in 384-well microtiter plates with an incubation volume of 20.2 μL. Solutions of test compounds were prepared in DMSO and serially diluted with DMSO to yield 8 μL of each of 10 solutions differing by 3-fold in concentration, at 32 serial dilutions per plate. 100% inhibition is determined using a known PDE10 inhibitor, which can be any compound that is present at 5,000 times its Ki value in the assay described as follows, such as papaverine (see Siuciak, et al. Neuropharmacology (2006) 51:386-396; Becker, et al. Behav Brain Res (2008) 186(2):155-60; Threlfell, et al., J Pharmacol Exp Ther (2009) 328(3):785-795), 2-{4-[pyridin-4-yl-1-(2,2,2-trifluoroethyl)-1H-pyrazol-3-yl]phenoxymethyl}quinoline succinic acid or 2-[4-(1-methyl-4-pyridin-4-yl-1H-pyrazol-3-yl)-phenoxymethyl]quinoline succinic acid (see Schmidt, et al. J Pharmacol Exp Ther (2008) 325:681-690; Threlfell, et al., J Pharmacol Exp Ther (2009) 328(3): 785-795). 0% of inhibition is determined by using DMSO (1% final concentrations).
# A Labcyte Echo 555 (Labcyte, Sunnyvale, Calif.) is used to dispense 200 nL from each well of the titration plate to the 384 well assay plate. A solution of enzyme (1/1600 dilution from aliquots; sufficient to produce 20% substrate conversion) and a separate solution of FAM-labeled cAMP PDE from Molecular Devices (product # R7506), at a final concentration of 50 nM are made in the assay buffer (10 mM Tris HCl, pH 7.2, 10 mM MgCl2, 0.05% NaN3 0.01% Tween-20, and 1 mM DTT). The enzyme and the substrate are then added to the assay plates in two consecutive additions of 10 μL, and then shaken to mix. The reaction is allowed to proceed at room temperature for 30 minutes. A binding solution is then made from the kit components, comprised of 80% Solution A, 20% Solution B and binding reagent at a volume of 1/600 the total binding solution. […]
# Chain of human PDE10A2 (Q9Y233 267-1055): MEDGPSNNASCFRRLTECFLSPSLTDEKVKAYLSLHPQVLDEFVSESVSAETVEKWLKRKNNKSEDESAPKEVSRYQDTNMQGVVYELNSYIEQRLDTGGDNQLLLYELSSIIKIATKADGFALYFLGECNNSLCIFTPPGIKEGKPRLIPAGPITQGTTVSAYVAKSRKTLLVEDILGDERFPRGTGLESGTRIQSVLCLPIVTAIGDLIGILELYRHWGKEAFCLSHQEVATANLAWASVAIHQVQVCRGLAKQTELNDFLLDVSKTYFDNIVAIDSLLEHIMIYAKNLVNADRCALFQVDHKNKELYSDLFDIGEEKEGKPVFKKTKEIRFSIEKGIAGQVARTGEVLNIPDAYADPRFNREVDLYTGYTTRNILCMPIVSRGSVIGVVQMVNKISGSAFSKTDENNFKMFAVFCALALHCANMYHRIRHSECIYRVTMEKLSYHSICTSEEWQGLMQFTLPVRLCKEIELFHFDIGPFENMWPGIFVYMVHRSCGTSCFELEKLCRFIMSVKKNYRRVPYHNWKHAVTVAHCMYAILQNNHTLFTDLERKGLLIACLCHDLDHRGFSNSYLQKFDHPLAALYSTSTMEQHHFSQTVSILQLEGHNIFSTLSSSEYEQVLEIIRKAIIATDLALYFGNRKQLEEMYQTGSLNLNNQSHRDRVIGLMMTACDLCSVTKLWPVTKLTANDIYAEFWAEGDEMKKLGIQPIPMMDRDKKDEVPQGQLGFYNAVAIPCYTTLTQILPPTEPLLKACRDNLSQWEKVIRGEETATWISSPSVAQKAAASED
row,pKi,Compound
1,8.08,"Cc1nc([C@@H]2C[C@H]2c2cn3c(C)cccc3n2)cc(-n2nc(C)nc2C)n1 (relative stereo) [Example 2, 2-((trans)-2-(6-(3,5-dimethyl-1H-1,2,4-triazol-1-yl)-2-methylpyrimidin-4-yl)cyclopropyl)-5-methylimidazo[1,2-a]pyridine]"
2,7.62,"Cc1ccc2nc([C@@H]3C[C@H]3c3cc(-n4nc(C)nc4C)nc(C)n3)cn2c1 (relative stereo) [Example 3, 2-((trans)-2-(6-(3,5-dimethyl-1H-1,2,4-triazol-1-yl)-2-methylpyrimidin-4-yl)cyclopropyl)-6-methylimidazo[1,2-a]pyridine]"
3,7.36,"Cc1ccn2cc([C@@H]3C[C@H]3c3cc(-n4nc(C)nc4C)nc(C)n3)nc2c1 (relative stereo) [Example 4, 2-((trans)-2-(6-(3,5-dimethyl-1H-1,2,4-triazol-1-yl)-2-methylpyrimidin-4-yl)cyclopropyl)-7-methylimidazo[1,2-a]pyridine]"
4,< 7.12,"Cc1nc([C@@H]2C[C@H]2c2cn3cccc(C)c3n2)cc(-n2nc(C)nc2C)n1 (relative stereo) [Example 5, 2-((trans)-2-(6-(3,5-dimethyl-1H-1,2,4-triazol-1-yl)-2-methylpyrimidin-4-yl)cyclopropyl)-8-methylimidazo[1,2-a]pyridine]"
5,< 7.12,"Cc1nc([C@@H]2C[C@H]2c2cn3cccc(F)c3n2)cc(-n2nc(C)nc2C)n1 (relative stereo) [Example 6, 2-((trans)-2-(6-(3,5-dimethyl-1H-1,2,4-triazol-1-yl)-2-methylpyrimidin-4-yl)cyclopropyl)-8-fluoroimidazo[1,2-a]pyridine]"
6,7.89,"Cc1nc([C@@H]2C[C@H]2c2cn3ccc(F)cc3n2)cc(-n2nc(C)nc2C)n1 (relative stereo) [Example 7, 2-((trans)-2-(6-(3,5-dimethyl-1H-1,2,4-triazol-1-yl)-2-methylpyrimidin-4-yl)cyclopropyl)-7-fluoroimidazo[1,2-a]pyridine]"
7,8.05,"Cc1nc([C@@H]2C[C@H]2c2nc3ccccn3c2I)cc(-n2nc(C)nc2C)n1 (relative stereo) [Example 8, 2-((trans)-2-(6-(3,5-dimethyl-1H-1,2,4-triazol-1-yl)-2-methylpyrimidin-4-yl)cyclopropyl)-3-iodoimidazo[1,2-a]pyridine]"
8,8.68,"Cc1nc([C@@H]2C[C@H]2c2nc3ccccn3c2C)cc(-n2nc(C)nc2C)n1 (relative stereo) [Example 9, 2-((trans)-2-(6-(3,5-dimethyl-1H-1,2,4-triazol-1-yl)-2-methylpyrimidin-4-yl)cyclopropyl)-3-methylimidazo[1,2-a]pyridine]"
9,8.42,"C=Cc1c([C@@H]2C[C@H]2c2cc(-n3nc(C)nc3C)nc(C)n2)nc2ccccn12 (relative stereo) [Example 10, 2-((trans)-2-(6-(3,5-dimethyl-1H-1,2,4-triazol-1-yl)-2-methylpyrimidin-4-yl)cyclopropyl)-3-vinylimidazo[1,2-a]pyridine]"
10,< 7.12,"Cc1nc([C@@H]2C[C@H]2c2nc3ccccn3c2C#N)cc(-n2nc(C)nc2C)n1 (relative stereo) [Example 11, 2-((trans)-2-(6-(3,5-dimethyl-1H-1,2,4-triazol-1-yl)-2-methylpyrimidin-4-yl)cyclopropyl)imidazo[1,2-a]pyridine-3-carbonitrile]"
11,8.24,"Cc1nc([C@H]2C[C@@H]2c2cn3ccccc3n2)cc(-n2nc(C)nc2C)n1 (stereo in doubt) [Example 1, 2-((1S,2S)-2-(6-(3,5-dimethyl-1H-1,2,4-triazol-1-yl)-2-methylpyrimidin-4-yl)cyclopropyl)imidazo[1,2-a]pyridine]"

# Reference: US9359348B2, “Cyclopropyl imidazopyridine PDE10 inhibitors” (Merck Sharp & Dohme Corp., priority 2012, dated 2016)
